How the values were obtained:
[1] = MTT cell viability assay, murine primary hepatocytes; type: cell-based, BALB/c mice; conditions: BALB/c, mouse
Source text: Primary human hepatocytes were isolated from liver segments obtained from adult patients undergoing partial hepatectomy (Service de Chirurgie Digestive, Hépato-Bilio Pancréatique, Hôpital Pitié Salpêtrière, Paris, France). Primary simian hepatocytes were isolated from liver segments collected from healthy Macaca fascicularis monkeys from CEA, Fontenay aux Roses, France. All hepatocytes were obtained using collagenase perfusion as previously described ([40]). Simian hepatocytes were immediately cryopreserved with a Nicool-Freezal controlled rate freezer (Air Liquide Santé, Marne la Vallée, France) and then used when needed after fast thawing at 37°C. Primary murine hepatocytes were isolated from liver segments collected from BALB/c mice. Human and murine hepatocytes were used directly after their isolation. Cells were seeded in 96-well plates (Falcon; Becton Dickinson Labware Europe, France) coated with collagen I (BD Bioscience, USA) at a density of 80,000 cells per well. […]
The toxicity of M1 toward primary hepatocytes and HepG2-CD81 cells was evaluated through the MTT {[3-(4,5-dimethyl-2-thiazolyl)-2,5-diphenyl-2H-tetrazolium bromide]} test ([42]). […] Then, MTT was replaced by a mixture of DMSO-ethanol (1:1) to dissolve formazan crystals and the absorbance was read at 540 nm on a FlexStation plate reader.

[2] = test system: P. falciparum F32-TEM (artemisinin-sensitive); assay: Standard in vitro chemosensitivity assay (hypoxanthine uptake), F32-TEM; type: cell-based; conditions: Plasmodium falciparum, F32, 48 h, read-out: Mean EC50 ± SD
Experimental: The Plasmodium falciparum artemisinin-resistant strain F32-ART5 and its twin artemisinin-sensitive line F32-TEM ([30], [31]) were cultivated at 37°C with 5% CO2 in human red blood cells (EFS [French Blood Bank]) diluted to 2% hematocrit in RPMI 1640 medium supplemented with 5% human serum (EFS) as previously reported ([47]).
In vitro susceptibility of P. falciparum parasites was determined by using the standard hypoxanthine uptake inhibition assay as described previously ([51]) with some modifications ([52]). After D-sorbitol treatment, parasites synchronized at the ring stage were exposed for 48 h, with [^3H]hypoxanthine (Perkin Elmer, France), to a range of concentrations of the different tested compounds. […] Each result represents 3 independent experiments.

[3] = test system: P. yoelii in mice and Anopheles stephensi; assay: In vivo transmission-blocking mosquito feeding assay; conditions: for No. of mosquitoes infected/total no. of mosquitoes (%): untreated 82.8; for No. of oocysts per mosquito: untreated 106; for Mean % parasitemia ± SD: day 4 p.i. in mice prior to mosquito feeding, untreated 0.97 ± 0.17; for Mean % gametocytemia ± SD: day 4 p.i. in mice, untreated 0.05 ± 0.004
Experimental: Experimental mice were infected by i.p. inoculations of 10^7 erythrocytes parasitized with P. yoelii GOMO 15 to test the effect of M1 following two different protocols of drug treatment. Infected mice were randomly allocated into 6 groups (5 mice per group) corresponding to the 3 conditions (control [solvent], M1 50 mg/kg, and PQ 50 mg/kg) in both drug administration protocols. For the first protocol, mice were treated daily from day zero to day 3, while for the second protocol, treatment was administered only once, 4 days after the infection and 2 h before mosquito feeding ([37]). At day 3 p.i., the presence and maturity of gametocytes was checked by microscopic examination of Giemsa-stained thin blood films and live-blood observation to assess microgamete exflagellation density. Mice were then anesthetized and placed according to the treatment on the top of individual cages containing 100 glucose-starved Anopheles stephensi female mosquitoes, which were allowed to feed for 1 h. Unfed mosquitoes were removed from the cages. Seven days after the infectious blood meal, 30 mosquitoes were dissected and their midguts examined using a phase-contrast microscope (400×) to assess the presence of oocysts. Two weeks after the blood meal, the salivary glands of 30 mosquitos were dissected to estimate the average number of sporozoites per mosquito in each group.

hERG channel = target: T1, hERG channel (Homo sapiens, UniProt Q12809); assay: Predictor hERG fluorescence polarization binding assay; conditions: 0.01 nM to 100 µM
T1 construct: purchased ThermoFischer PV5665
Experimental: hERG channel binding was determined with the PredictorTM hERG Fluorescence Polarization Assay (PV5665 ThermoFischer). Briefly, reagents were thawed, and were mixed by pipetting 20x with PredictorTM hERG membranes. The fluorescent tracer was diluted at 4 nM in the PredictorTM hERG buffer. […] The assay was performed in a 96-well Greiner microplate (675093 Dutscher). 25 µL of each concentration of M1 were dispensed into the plate. Then, 50 µL of the PredictorTM hERG membranes and 25 µL of the fluorescent tracer 4 nM were added. The plate was incubated at room temperature for 4 h. The fluorescence polarization measurements were made using a Synergy 2 microplate reader (Biotek Instrument, Colmar, France). Both parallel and perpendicular fluorescence were measured using 530/25 nm excitation and 590/35 nm emission filters with a 570 nm dichroic mirror. The gain was fixed at 110. A known hERG channel blocker (E-4031), provided by the kit, was assayed as positive reference. Both E-4031 and M1 were tested at final concentrations ranging from 0.01 nM to 100 µM. IC50 values were determined graphically by plotting the % inhibition versus the logarithm of 9 M1 concentrations in the assay solution using the GraphPad Prism software (version 6.01, GraphPad Software, La Jolla, CA, USA).

HepG2 or CHO cell lines = test system: HepG2 or CHO cell lines; set-up: method as in PMID 25791675; conditions: cited from earlier work
[4] = set-up: method as in PMID 25791675; conditions: cited from earlier work
[5] = 50 mg/kg i.p. every day D0 to D3
[6] = 50 mg/kg i.p. on day 3, 2 h before feeding

T1 sequence (Q12809 whole entry): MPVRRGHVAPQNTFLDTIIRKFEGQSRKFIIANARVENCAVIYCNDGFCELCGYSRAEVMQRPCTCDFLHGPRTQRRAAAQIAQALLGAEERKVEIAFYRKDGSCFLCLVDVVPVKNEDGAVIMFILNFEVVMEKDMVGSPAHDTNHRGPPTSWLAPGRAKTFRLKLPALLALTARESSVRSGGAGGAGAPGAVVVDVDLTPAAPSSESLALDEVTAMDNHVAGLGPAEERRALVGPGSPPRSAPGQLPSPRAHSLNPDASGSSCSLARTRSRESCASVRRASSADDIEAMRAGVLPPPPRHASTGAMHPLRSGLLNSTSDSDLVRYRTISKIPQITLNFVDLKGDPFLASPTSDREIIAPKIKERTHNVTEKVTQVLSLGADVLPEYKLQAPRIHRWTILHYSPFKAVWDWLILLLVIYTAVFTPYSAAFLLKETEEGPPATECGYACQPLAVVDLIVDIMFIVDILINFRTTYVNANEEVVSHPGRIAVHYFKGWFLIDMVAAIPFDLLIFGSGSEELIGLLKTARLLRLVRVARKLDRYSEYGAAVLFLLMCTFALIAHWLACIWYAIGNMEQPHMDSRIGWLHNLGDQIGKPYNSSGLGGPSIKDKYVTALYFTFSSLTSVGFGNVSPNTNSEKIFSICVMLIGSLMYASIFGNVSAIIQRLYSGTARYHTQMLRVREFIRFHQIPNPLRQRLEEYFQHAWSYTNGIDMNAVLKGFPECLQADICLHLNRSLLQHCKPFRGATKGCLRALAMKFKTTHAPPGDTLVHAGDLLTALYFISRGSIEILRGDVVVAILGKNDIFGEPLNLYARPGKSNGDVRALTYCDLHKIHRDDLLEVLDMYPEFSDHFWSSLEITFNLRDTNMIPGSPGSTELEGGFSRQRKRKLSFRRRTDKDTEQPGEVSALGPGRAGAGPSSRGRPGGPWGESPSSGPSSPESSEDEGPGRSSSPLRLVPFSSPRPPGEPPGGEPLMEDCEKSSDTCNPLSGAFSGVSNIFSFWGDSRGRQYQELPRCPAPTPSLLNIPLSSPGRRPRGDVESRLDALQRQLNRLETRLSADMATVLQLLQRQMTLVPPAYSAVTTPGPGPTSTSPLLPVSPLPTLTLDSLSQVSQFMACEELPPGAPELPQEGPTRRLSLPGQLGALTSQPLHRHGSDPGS

Cc1ccc(-c2cc3nc(NC(C)(C)C)[nH]c(=O)c3s2)cc1 [Metabolite M1, 2-(tert-Butylamino)-6-(p-tolyl)thieno[3,2-d]pyrimidin-4(3H)-one]
CC50 at 2 days [1]: > 60 µM
EC50 [2]: 0.283 ± 0.125 µM
reduction in parasitemia before mosquito feeding ([3]; 50 mg/kg during D0 to D3, day 4): 50%
No. of mosquitoes infected/total no. of mosquitoes (%) [3, 5]: 25/35 (71.4) %
No. of oocysts per mosquito [3, 5]: 32
No. of mosquitoes infected/total no. of mosquitoes (%) [3, 6]: 13/35 (37.1) %
No. of oocysts per mosquito [3, 6]: 1
Mean % parasitemia ± SD [3, 5]: 0.47 ± 0.24%
Mean % parasitemia ± SD [3, 6]: 0.99 ± 0.34%
Mean % gametocytemia ± SD [3, 5]: 0.04 ± 0.009%
Mean % gametocytemia ± SD [3, 6]: 0.04 ± 0.01%
binding toward the hERG channel (hERG channel): no affinity
CC50 (HepG2 or CHO cell lines): ≥ 25 µM
Ames test [4]: negative
